The results in this text go back to publication PMC4306942, “Asperlones A and B, Dinaphthalenone Derivatives from a Mangrove Endophytic Fungus Aspergillus sp. 16-5C” (Marine Drugs, 2015).

In data set [1] the target is T1, Mycobacterium tuberculosis protein tyrosine phosphatase B (MptpB) (Mycobacterium tuberculosis, UniProt I6WXK4).
T1 construct: The full-length PTPB gene was amplified from genomic DNA of the Mtb H37Rv strain; His6 (N); made in house; host or cells: Escherichia coli BL21(DH3) (so in the source)
T1 sequence (I6WXK4 whole entry, looked up): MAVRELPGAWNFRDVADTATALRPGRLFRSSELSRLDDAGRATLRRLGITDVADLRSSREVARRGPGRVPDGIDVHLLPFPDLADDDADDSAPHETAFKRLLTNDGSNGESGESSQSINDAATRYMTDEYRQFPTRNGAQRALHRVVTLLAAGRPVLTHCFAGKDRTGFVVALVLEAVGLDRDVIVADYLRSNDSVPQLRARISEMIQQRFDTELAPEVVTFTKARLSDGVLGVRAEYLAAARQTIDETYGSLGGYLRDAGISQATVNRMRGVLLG
Put plainly: MptpB inhibition assay (RediPlate 96 EnzChek Tyrosine Phosphatase Assay kit, DiFMUP hydrolysis). As to conditions: for IC50: fluorogenic substrate DiFMUP, average of three independent experiments, read-out: IC50 against MptpB; for inhibitory activity against MptpB (in words): bioassay summary in conclusions. It counts as biochemical.

For orientation: IC50 means the concentration at which inhibition is half-maximal. With `O=C1C2=C3C(=CC(=O)c4c(O)cc(O)cc43)OC2(O)Cc2cc(O)cc(O)c21` (racemic) [Compound 2, (±)-asperlone B], in data set [1], the concentration for half-maximal inhibition (IC50) was determined as 4.32 ± 0.6 µM and the “inhibitory activity against MptpB (in words)” value (from here on “inhibitory activity”) is given as “strong inhibitory activity”.

In general, melting point refers to the temperature of the solid-liquid transition. Compound `Cc1c(O)c(O)cc(O)c1C(=O)O[C@]1(C)C(=O)C=C2C=C(C=CC(=O)O)OC=C2C1=O` [Compound 3, 6″-hydroxy-(R)-mitorubrinic acid] gave a melting point of more than 300 °C. Moreover, in data set [1], the half-inhibitory concentration (IC50) is more than 50 µM.

`[Na+].[Na+].[Na+].[O]=[V]([O-])([O-])[O-]` [Positive Control, sodium orthovanadate, reference compound]: the IC50 in data set [1] came out at 0.05 µM.

Regarding `C/C=C/C1=CC2=CC(=O)[C@@](C)(OC(=O)c3c(C)cc(O)cc3O)C(=O)C2=CO1` [Compound 6, (−)-mitorubrin], in data set [1], the IC50 was found to be 3.99 ± 0.34 µM and the “inhibitory activity” value was “strong inhibitory activity”.

For the compound `Cc1cc(O)cc(O)c1C(=O)O[C@]1(C)C(=O)C=C2C=C(/C=C/C(=O)O)OC=C2C1=O` [Compound 5, (−)-mitorubrinic acid], the IC50 in data set [1] is more than 50 µM.

`O=C1C2=C3C(=CC(=O)c4c(O)cccc43)OC2(O)Cc2cc(O)cc(O)c21` (racemic) [Compound 1, (±)-asperlone A]: in data set [1], the concentration for half-maximal inhibition (IC50) was 4.24 ± 0.41 µM and the “inhibitory activity” value is reported as “strong inhibitory activity”.
